Measurements taken from ChEMBL document CHEMBL2417434, “The first synthesis of natural disulfide bruguiesulfurol and biological evaluation of its derivatives as a novel scaffold for PTP1B inhibitors” (Bioorg Med Chem Lett, 2013).

Assays:
[1] = target: Receptor-type tyrosine-protein phosphatase F (Homo sapiens, UniProt P10586); assay: Inhibition of LAR (unknown origin)
[2] = target: Tyrosine-protein phosphatase non-receptor type 6 (Homo sapiens, UniProt P29350); assay: Inhibition of SHP1 (unknown origin)
[3] = target: T1, Tyrosine-protein phosphatase non-receptor type 11 (Homo sapiens, UniProt Q06124); assay: Inhibition of SHP2 (unknown origin)
T1 sequence (Q06124 whole entry): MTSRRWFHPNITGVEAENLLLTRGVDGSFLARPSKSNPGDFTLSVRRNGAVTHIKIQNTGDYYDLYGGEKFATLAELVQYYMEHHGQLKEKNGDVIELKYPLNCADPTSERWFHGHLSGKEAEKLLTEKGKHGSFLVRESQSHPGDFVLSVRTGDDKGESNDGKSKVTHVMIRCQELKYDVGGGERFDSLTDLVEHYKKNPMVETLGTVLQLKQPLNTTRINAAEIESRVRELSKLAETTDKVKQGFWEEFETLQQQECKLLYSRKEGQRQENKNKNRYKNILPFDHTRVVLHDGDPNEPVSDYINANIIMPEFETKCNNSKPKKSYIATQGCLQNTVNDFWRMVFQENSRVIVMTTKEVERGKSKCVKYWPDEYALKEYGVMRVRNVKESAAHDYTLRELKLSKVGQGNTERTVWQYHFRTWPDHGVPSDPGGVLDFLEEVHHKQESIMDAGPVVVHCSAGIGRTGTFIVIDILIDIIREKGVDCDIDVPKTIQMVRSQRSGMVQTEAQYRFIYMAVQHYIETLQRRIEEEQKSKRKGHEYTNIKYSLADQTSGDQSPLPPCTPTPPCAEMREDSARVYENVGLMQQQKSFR

[4] = target: T2, Tyrosine-protein phosphatase non-receptor type 2 (Homo sapiens, UniProt P17706); assay: Inhibition of TCPTP (unknown origin)
T2 sequence (P17706 whole entry): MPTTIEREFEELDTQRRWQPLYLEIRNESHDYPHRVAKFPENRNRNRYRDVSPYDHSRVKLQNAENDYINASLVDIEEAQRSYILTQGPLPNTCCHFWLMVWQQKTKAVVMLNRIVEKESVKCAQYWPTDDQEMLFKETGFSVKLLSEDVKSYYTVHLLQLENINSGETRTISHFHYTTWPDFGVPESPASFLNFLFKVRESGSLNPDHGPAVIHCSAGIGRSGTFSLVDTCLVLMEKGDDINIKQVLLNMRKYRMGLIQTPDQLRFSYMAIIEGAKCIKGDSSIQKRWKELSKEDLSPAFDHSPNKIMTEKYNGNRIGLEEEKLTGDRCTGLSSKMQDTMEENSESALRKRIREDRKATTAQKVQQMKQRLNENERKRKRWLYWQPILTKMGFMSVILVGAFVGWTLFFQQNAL

[5] = target: T3, Tyrosine-protein phosphatase non-receptor type 1 (Homo sapiens, UniProt P18031); assay: Inhibition of PTP1B (unknown origin)
T3 sequence (P18031 whole entry): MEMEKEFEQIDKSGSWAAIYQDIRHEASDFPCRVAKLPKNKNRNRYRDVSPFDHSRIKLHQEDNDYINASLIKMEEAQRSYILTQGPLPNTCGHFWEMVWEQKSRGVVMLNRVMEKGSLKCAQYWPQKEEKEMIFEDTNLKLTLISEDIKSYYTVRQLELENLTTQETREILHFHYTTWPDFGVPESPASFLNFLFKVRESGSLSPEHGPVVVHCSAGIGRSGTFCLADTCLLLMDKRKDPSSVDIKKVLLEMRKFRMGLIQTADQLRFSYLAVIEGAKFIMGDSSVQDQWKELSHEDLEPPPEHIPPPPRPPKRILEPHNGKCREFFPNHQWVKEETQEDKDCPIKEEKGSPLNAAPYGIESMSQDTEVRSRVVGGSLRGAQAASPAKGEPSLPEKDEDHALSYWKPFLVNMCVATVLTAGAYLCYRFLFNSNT

Chain of Receptor-type tyrosine-protein phosphatase F (P10586 whole entry): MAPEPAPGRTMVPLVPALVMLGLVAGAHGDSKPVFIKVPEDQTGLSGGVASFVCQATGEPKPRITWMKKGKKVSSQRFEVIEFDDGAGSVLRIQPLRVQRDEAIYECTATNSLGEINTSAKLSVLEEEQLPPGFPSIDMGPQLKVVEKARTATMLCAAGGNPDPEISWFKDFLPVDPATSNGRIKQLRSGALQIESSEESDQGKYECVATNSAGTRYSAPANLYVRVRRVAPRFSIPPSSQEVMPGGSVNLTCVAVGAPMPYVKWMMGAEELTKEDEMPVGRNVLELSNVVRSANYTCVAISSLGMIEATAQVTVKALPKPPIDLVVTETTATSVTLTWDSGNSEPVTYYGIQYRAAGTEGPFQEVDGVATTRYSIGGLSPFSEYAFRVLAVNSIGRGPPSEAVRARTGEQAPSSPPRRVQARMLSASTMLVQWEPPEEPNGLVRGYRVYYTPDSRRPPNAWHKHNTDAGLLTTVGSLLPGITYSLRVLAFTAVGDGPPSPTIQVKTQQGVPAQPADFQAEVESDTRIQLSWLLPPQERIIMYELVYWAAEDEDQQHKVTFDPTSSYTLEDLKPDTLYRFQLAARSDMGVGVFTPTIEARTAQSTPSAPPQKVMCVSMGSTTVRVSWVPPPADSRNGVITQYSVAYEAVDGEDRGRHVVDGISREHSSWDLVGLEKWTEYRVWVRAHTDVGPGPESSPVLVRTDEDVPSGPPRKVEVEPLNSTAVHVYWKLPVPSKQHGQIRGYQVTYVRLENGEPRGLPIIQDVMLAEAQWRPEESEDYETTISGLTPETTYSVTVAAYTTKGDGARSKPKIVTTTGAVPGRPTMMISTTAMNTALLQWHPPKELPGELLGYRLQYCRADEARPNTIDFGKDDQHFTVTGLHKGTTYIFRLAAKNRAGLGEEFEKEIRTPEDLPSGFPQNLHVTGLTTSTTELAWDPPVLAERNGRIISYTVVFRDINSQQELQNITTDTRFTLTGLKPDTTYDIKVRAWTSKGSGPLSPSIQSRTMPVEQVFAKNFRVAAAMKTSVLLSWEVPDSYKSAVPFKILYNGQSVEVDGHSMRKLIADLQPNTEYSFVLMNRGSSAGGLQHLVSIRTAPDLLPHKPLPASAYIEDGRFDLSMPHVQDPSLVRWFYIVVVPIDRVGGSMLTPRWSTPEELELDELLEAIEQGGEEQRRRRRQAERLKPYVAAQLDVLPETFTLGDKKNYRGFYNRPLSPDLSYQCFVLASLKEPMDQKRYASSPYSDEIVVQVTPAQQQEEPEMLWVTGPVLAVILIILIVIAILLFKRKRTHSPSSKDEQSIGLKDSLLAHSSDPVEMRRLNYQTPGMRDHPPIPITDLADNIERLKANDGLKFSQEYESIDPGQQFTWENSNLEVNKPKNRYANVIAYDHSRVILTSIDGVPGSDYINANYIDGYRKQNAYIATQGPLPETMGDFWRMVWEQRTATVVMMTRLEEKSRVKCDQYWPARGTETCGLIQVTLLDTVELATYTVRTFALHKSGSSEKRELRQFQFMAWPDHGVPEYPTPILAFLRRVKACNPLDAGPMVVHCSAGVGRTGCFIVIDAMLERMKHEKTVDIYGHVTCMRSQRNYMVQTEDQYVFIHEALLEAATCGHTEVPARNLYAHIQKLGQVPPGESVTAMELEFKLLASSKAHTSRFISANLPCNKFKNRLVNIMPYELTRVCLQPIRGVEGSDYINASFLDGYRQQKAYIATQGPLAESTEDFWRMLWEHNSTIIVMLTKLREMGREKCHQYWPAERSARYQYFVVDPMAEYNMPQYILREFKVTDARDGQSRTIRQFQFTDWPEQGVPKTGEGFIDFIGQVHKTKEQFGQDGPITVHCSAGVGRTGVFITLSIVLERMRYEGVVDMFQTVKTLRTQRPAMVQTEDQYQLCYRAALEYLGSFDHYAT
Chain of Tyrosine-protein phosphatase non-receptor type 6 (P29350 whole entry): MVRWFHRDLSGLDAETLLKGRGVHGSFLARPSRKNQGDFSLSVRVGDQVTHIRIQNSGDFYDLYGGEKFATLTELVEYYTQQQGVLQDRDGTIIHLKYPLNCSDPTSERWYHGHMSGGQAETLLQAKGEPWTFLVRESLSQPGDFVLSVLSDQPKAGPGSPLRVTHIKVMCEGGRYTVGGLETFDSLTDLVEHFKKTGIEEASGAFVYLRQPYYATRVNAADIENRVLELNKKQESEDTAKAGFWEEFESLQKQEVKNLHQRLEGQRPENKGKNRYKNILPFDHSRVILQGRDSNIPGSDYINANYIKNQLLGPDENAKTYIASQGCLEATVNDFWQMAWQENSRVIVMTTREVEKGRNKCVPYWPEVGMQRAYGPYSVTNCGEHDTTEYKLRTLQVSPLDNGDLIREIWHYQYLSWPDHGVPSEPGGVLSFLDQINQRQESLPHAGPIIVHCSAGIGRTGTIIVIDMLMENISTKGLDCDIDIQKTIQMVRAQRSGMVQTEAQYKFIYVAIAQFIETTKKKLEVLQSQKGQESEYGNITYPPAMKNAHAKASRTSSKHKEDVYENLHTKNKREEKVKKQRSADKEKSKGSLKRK

| SMILES | IC50 [1] | IC50 [2] | IC50 [3] | IC50 ([5]; read-out: IC50) | IC50 ([4]; read-out: IC50) | IC50 [5] | further results |
| --- | --- | --- | --- | --- | --- | --- | --- |
| O=C(Cc1ccc(Br)cc1)OC1CS[S+]([O-])C1 (configuration not stated) | Not Active | Not Active | Not Active | 45 µM | – | – | IC50 [4]: Not Active |
| O=C(OC1CS[S+]([O-])C1)c1ccc(I)cc1 (configuration not stated) | Not Active | Not Active | Not Active | 22.4 µM | 33 µM | – | – |
| O=C(OC1CSSC1)c1ccccc1Br | – | – | – | – | – | Not Active | – |
| O=C(OC1CSS(=O)(=O)C1)c1cc2ccccc2[nH]1 (configuration not stated) | – | – | – | – | – | Not Active | – |
| O=C(OC1CSSC1)c1ccc(F)cc1 | – | – | – | – | – | Not Active | – |
| O=C(Cc1ccc(Br)cc1)OC1CSS(=O)(=O)C1 (configuration not stated) | – | – | – | – | – | Not Active | – |
| COc1ccc(C(=O)OC2CSSC2)c(OC)c1 | – | – | – | – | – | Not Active | – |
| O=C(OC1CSSC1)c1ccc[nH]1 | – | – | – | – | – | Not Active | – |
| O=C(OC1CSSC1)c1ccoc1 | Not Active | – | – | 78.2 µM | – | – | IC50 ([2]; read-out: IC50): 17.9 µM; IC50 ([3]; read-out: IC50): 21.4 µM; IC50 [4]: Not Active |
| O=C(OC1CSS(=O)(=O)C1)c1ccc(Br)cc1 (configuration not stated) | – | – | – | – | – | Not Active | – |
| O=C(OC1CSSC1)c1ccccc1I | – | Not Active | Not Active | 48.2 µM | 42.1 µM | – | IC50 ([1]; read-out: IC50): 20.4 µM |
| O=C(OC1CSS(=O)(=O)C1)c1ccc(I)cc1 (configuration not stated) | – | – | – | – | – | Not Active | – |
| O=C(OC1CSSC1)c1cc2ccccc2[nH]1 | Not Active | Not Active | Not Active | 24.1 µM | 35.8 µM | – | – |
| O=C(OC1CSSC1)c1ccc(Cl)cc1 | – | – | – | – | – | Not Active | – |
| O=C(OC1CSS(=O)(=O)C1)c1ccccc1I (configuration not stated) | – | – | – | – | – | Not Active | – |
| O=C(OC1CSS(=O)(=O)C1)c1cc(Br)ccc1Br (configuration not stated) | – | – | – | – | – | Not Active | – |
| O=C(OC1CS[S+]([O-])C1)c1ccc(Br)cc1 (configuration not stated) | – | – | – | – | – | Not Active | – |
| O=C(OC1CS[S+]([O-])C1)c1cc2ccccc2[nH]1 (configuration not stated) | Not Active | Not Active | Not Active | 31.4 µM | 52.6 µM | – | – |
| O=C(OC1CSSC1)c1ccc(Br)cc1 | – | Not Active | Not Active | 11 µM | 34 µM | – | IC50 ([1]; read-out: IC50): 34.6 µM |
| O=C(OC1CSSC1)c1ccc([N+](=O)[O-])cc1 | Not Active | Not Active | Not Active | 22.6 µM | 37.4 µM | – | – |

| SMILES | IC50 [1] | IC50 [2] | IC50 [3] | IC50 ([5]; read-out: IC50) | IC50 ([4]; read-out: IC50) | IC50 [5] | further results |
| --- | --- | --- | --- | --- | --- | --- | --- |
| O=C(OC1CSSC1)c1ccc(I)cc1 | Not Active | Not Active | Not Active | 33.4 µM | 34.1 µM | – | – |
| O=C(OC1CSS(=O)(=O)C1)c1cccc(Br)c1 (configuration not stated) | Not Active | Not Active | Not Active | 29 µM | – | – | IC50 [4]: Not Active |
| O=S1(=O)C[C@H](O)CS1 [BRUGUIESULFUROL] | – | – | – | 17.5 µM | – | – | – |
| NS(=O)(=O)c1ccc(C(=O)OC2CSSC2)cc1 | Not Active | – | – | 24.9 µM | 40.7 µM | – | IC50 ([2]; read-out: IC50): 14 µM; IC50 ([3]; read-out: IC50): 13.4 µM |
| O=C(OC1CS[S+]([O-])C1)c1ccc(F)cc1 (configuration not stated) | – | – | – | – | – | Not Active | – |
| O=C(OC1CS[S+]([O-])C1)c1ccccc1Br (configuration not stated) | – | – | – | – | – | Not Active | – |
| O=C(OC1CSSC1)c1ccco1 | Not Active | – | – | 35.2 µM | 75.4 µM | – | IC50 ([2]; read-out: IC50): 15.8 µM; IC50 ([3]; read-out: IC50): 22.3 µM |
| O=C(OC1CS[S+]([O-])C1)c1cccc(Br)c1 (configuration not stated) | Not Active | Not Active | Not Active | 28 µM | – | – | IC50 [4]: Not Active |
| O=C(OC1CSSC1)c1cc(Br)ccc1Br | Not Active | – | Not Active | 25.6 µM | 20.4 µM | – | IC50 ([2]; read-out: IC50): 10.9 µM |
| O=C(OC1CSS(=O)(=O)C1)c1ccccc1Br (configuration not stated) | – | – | – | – | – | Not Active | – |
| O=C(OC1CSSC1)c1cccc(Br)c1 | – | – | – | – | – | Not Active | – |
| O=C(OC1CSSC1)c1ccccc1 | – | – | – | – | – | Not Active | – |
| CC(=O)OC1CSSC1 | – | – | – | – | – | Not Active | – |
| O=C(Cc1ccc(Br)cc1)OC1CSSC1 | – | – | – | – | – | Not Active | – |
| O=C(OC1CS[S+]([O-])C1)c1cc(Br)ccc1Br (configuration not stated) | Not Active | Not Active | Not Active | 4.54 µM | 11.1 µM | – | – |
| O=C(CCc1ccc(Br)cc1)OC1CSSC1 | – | – | – | – | – | Not Active | – |
| O=C(OC1CSSC1)c1cc([N+](=O)[O-])cc([N+](=O)[O-])c1 | Not Active | – | – | 14.8 µM | 27.3 µM | – | IC50 ([2]; read-out: IC50): 24.4 µM; IC50 ([3]; read-out: IC50): 13.8 µM |
| O=C(OC1CS[S+]([O-])C1)c1ccccc1I (configuration not stated) | Not Active | Not Active | Not Active | 29.7 µM | 36.8 µM | – | – |
| O=C(OC1CSS(=O)(=O)C1)c1ccc(F)cc1 (configuration not stated) | – | – | – | – | – | Not Active | – |
